First: CC(C)n1nc(-c2cnc(N)nc2-c2ccc(O)cc2)ccc1=O (hydrate or solvate) [Example 185, 6-[2-amino-4-(4-hydroxyphenyl)-5-pyrimidinyl]-2-isopropyl-3(2H)-pyridazinone]
Second: CC(C)n1nc(-c2cnc(N)nc2-c2ccc(F)cc2)ccc1=O [Example 13, 6-[2-amino-4-(4-fluorophenyl)-5-pyrimidinyl]-2-isopropyl-3(2H)-pyridazinone]
The melting point of the first is higher: 246 °C for the first, 238 to 239 °C for the second.

Compared with `CC(C)n1nc(-c2cnc(N)nc2-c2ccccc2O)ccc1=O` (hydrate or solvate) [Example 186, 6-[2-Amino-4-(2-hydroxyphenyl)-5-pyrimidinyl]-2-isopropyl-3(2H)-pyridazinone], `CC(C)n1nc(-c2cnc(N)nc2-c2ccccc2Br)ccc1=O` [Example 15, 6-[2-Amino-4-(2-bromophenyl)-5-pyrimidinyl]-2-isopropyl-3(2H)-pyridazinone] is lower in melting point: 241 °C for the first, 203 to 205 °C for the second.

First: CC(C)n1nc(-c2cnc(N)nc2-c2cccc(O)c2)ccc1=O (hydrate or solvate) [Example 187, 6-[2-Amino-4-(3-hydroxyphenyl)-5-pyrimidinyl]-2-isopropyl-3(2H)-pyridazinone]
Second: CC(C)n1nc(-c2cnc(N)nc2-c2cccc(F)c2)ccc1=O [Example 21, 6-[2-Amino-4-(3-fluorophenyl)-5-pyrimidinyl]-2-isopropyl-3(2H)-pyridazinone]
The melting point of the first is lower: 204 °C for the first, 220 to 221.5 °C for the second.

Compared with `Cn1nc(-c2cnc(N)nc2-c2ccc(O)cc2)ccc1=O` (hydrate or solvate) [Example 223, 6-[2-Amino-4-(4-hydroxyphenyl)-5-pyrimidinyl)-2-methyl-3(2H)-pyridazinone], `Cn1nc(-c2cnc(N)nc2-c2cccc(O)c2)ccc1=O` (hydrate or solvate) [Example 225, 6-[2-Amino-4-(3-hydroxyphenyl)-5-pyrimidinyl]-2-methyl-3(2H)-pyridazinone] is higher in melting point: 250 °C for the first, 285 °C for the second.

Compared with `Cn1nc(-c2cnc(N)nc2-c2ccccc2O)ccc1=O` (hydrate or solvate) [Example 224, 6-[2-Amino-4-(2-hydroxyphenyl)-5-pyrimidinyl]-2-methyl-3(2H)-pyridazinone], `Cn1nc(-c2cnc(N)nc2-c2ccccc2)ccc1=O` [Example 3, 6-(2-Amino-4-phenyl-5-pyrimidinyl)-2-methyl-3(2H)-pyridazinone] is lower in melting point: 260 °C for the first, 254 to 255 °C for the second.

First: CCCn1nc(-c2cnc(N)nc2-c2ccccc2)ccc1=O [Example 5, 6-(2-Amino-4-phenyl-5-pyrimidinyl)-2-propyl-3(2H)-pyridazinone]
Second: Nc1ncc(-c2ccc(=O)n(Cc3ccccc3)n2)c(-c2ccccc2)n1 [Example 6, 6-(2-Amino-4-phenyl-5-pyrimidinyl)-2-benzyl-3(2H)-pyridazinone]
The melting point of the first is lower: 188 to 189 °C for the first, 229 to 230 °C for the second.

Compared with `CN(C)c1ncc(-c2ccc(=O)[nH]n2)c(-c2ccccc2)n1` [Example 9, 6-[2-(Dimethylamino)-4-phenyl-5-pyrimidinyl]-3(2H)-pyridazinone], `CC(C)n1nc(-c2cnc(N(C)C)nc2-c2ccccc2)ccc1=O` [Example 11, 6-[2-(Dimethylamino)-4-phenyl-5-pyrimidinyl]-2-isopropyl-3(2H)-pyridazinone] is lower in melting point: 245 to 246 °C for the first, 155 to 156 °C for the second.

First: CNc1ncc(-c2ccc(=O)n(C(C)C)n2)c(-c2ccccc2)n1 [Example 10, 2-Isopropyl-6-[2-(methylamino)-4-phenyl-5-pyrimidinyl]-3(2H)-pyridazinone]
Second: CC(C)n1nc(-c2cnc(Nc3ccccc3)nc2-c2ccccc2)ccc1=O [Example 19, 6-(2-Anilino-4-phenyl-5-pyrimidinyl)-2-isopropyl-3(2H)-pyridazinone]
The melting point of the first is lower: 160 to 161 °C for the first, 200 to 202 °C for the second.

Compared with `CC(C)n1nc(-c2cnc(N3CCOCC3)nc2-c2ccccc2)ccc1=O` [Example 17, 2-isopropyl-6-[2-morpholino-4-phenyl-5-pyrimidinyl]-3(2H)-pyridazinone], `CC(C)n1nc(-c2cnc(N)nc2-c2ccccc2F)ccc1=O` [Example 20, 6-[2-Amino-4-(2-fluorophenyl)-5-pyrimidinyl]-2-isopropyl-3(2H)-pyridazinone] is higher in melting point: 200.5 to 202 °C for the first, 239 to 240.5 °C for the second.

First: CC(C)n1nc(-c2cnc(N)nc2-c2ccccc2Cl)ccc1=O [Example 22, 6-[2-Amino-4-(2-chlorophenyl)-5-pyrimidinyl]-2-isopropyl-3(2H)-pyridazinone]
Second: CC(C)n1nc(-c2cnc(N)nc2-c2ccccc2C(F)(F)F)ccc1=O [Example 24, 6-{2-Amino-4-[2-(trifluoromethyl)phenyl]-5-pyrimidinyl}-2-isopropyl-3(2H)-pyridazinone]
The melting point of the first is higher: 227 to 228.5 °C for the first, 160 to 161 °C for the second.

Compared with `CC(C)n1nc(-c2cnc(N)nc2-c2cccc(Cl)c2)ccc1=O` [Example 23, 6-[2-Amino-4-(3-chlorophenyl)-5-pyrimidinyl]-2-isopropyl-3(2H)-pyridazinone], `CC(C)n1nc(-c2cnc(N)nc2-c2ccc(Cl)cc2)ccc1=O` [Example 45, 6-[2-Amino-4-(4-chlorophenyl)-5-pyrimidinyl]-2-isopropyl-3(2H)-pyridazinone] is lower in melting point: 236 to 237 °C for the first, 195 °C for the second.

Compared with `CC(C)n1nc(-c2cnc(N)nc2-c2cccc(C(F)(F)F)c2)ccc1=O` [Example 25, 6-{2-Amino-4-[3-(trifluoromethyl)phenyl]-5-pyrimidinyl}-2-isopropyl-3(2H)-pyridazinone], `CC(C)n1nc(-c2cnc(N)nc2-c2ccc(C(F)(F)F)cc2)ccc1=O` [Example 26, 6-{2-Amino-4-[4-(trifluoromethyl)phenyl]-5-pyrimidinyl}-2-isopropyl-3(2H)-pyridazinone] is higher in melting point: 163.5 to 165 °C for the first, 209 to 210.5 °C for the second.

Going from `COc1ccc(-c2nc(N)ncc2-c2ccc(=O)[nH]n2)cc1` [Example 27, 6-[2-amino-4-(4-methoxyphenyl)-5-pyrimidinyl]-3(2H)-pyridazinone] to `Cc1ccc(-c2nc(N)ncc2-c2ccc(=O)[nH]n2)cc1` [Example 35, 6-[2-Amino-4-(4-methylphenyl)-5-pyrimidinyl]-3(2H)-pyridazinone], the melting point rises from 142 °C to 249 °C.

Compared with `Nc1ncc(-c2ccc(=O)[nH]n2)c(-c2cccc(F)c2)n1` [Example 28, 6-[2-Amino-4-(3-fluorophenyl)-5-pyrimidinyl]-3(2H)-pyridazinone], `Cc1cccc(-c2nc(N)ncc2-c2ccc(=O)[nH]n2)c1` [Example 42, 6-[2-Amino-4-(3-methylphenyl)-5-pyrimidinyl]-3(2H)-pyridazinone] is lower in melting point: 249 °C for the first, 216 °C for the second.

First: COc1ccc(-c2nc(N)ncc2-c2ccc(=O)[nH]n2)cc1F [Example 29, 6-[2-Amino-4-(3-fluoro-4-methoxyphenyl)-5-pyrimidinyl]-3(2H)-pyridazinone]
Second: COc1ccc(-c2nc(N)ncc2-c2ccc(=O)[nH]n2)cc1OC [Example 37, 6-[2-Amino-4-(3,4-dimethoxyphenyl)-5-pyrimidinyl]-3(2H)-pyridazinone]
The melting point of the first is higher: 250 °C for the first, 225 °C for the second.

First: Nc1ncc(-c2ccc(=O)[nH]n2)c(-c2cccnc2)n1 [Example 31, 6-[2-Amino-4-(3-pyridinyl)-5-pyrimidinyl]-3(2H)-pyridazinone]
Second: COc1cccc(-c2nc(N)ncc2-c2ccc(=O)[nH]n2)c1 [Example 43, 6-[2-Amino-4-(3-methoxyphenyl)-5-pyrimidinyl)-3(2H)-pyridazinone]
The melting point of the first is higher: 256 °C for the first, 134 °C for the second.

`Nc1ncc(-c2ccc(=O)[nH]n2)c(-c2ccco2)n1` [Example 34, 6-[2-Amino-4-(2-furyl)-5-pyrimidinyl]-3(2H)-pyridazinone] and `Nc1ncc(-c2ccc(=O)[nH]n2)c(-c2cccs2)n1` [Example 41, 6-[2-Amino-4-(2-thienyl)-5-pyrimidinyl]-3(2H)-pyridazinone] cannot be ordered by melting point: 262 to 268 °C for the first, 265 °C for the second.

Going from `Nc1ncc(-c2ccc(=O)[nH]n2)c(-c2ccc(Cl)c(Cl)c2)n1` [Example 38, 6-[2-Amino-4-(3,4-dichlorophenyl)-5-pyrimidinyl]-3(2H)-pyridazinone] to `CC(C)n1nc(-c2cnc(N)nc2-c2ccc(Cl)c(Cl)c2)ccc1=O` [Example 50, 6-[2-Amino-4-(3,4-dichlorophenyl)-5-pyrimidinyl]-2-isopropyl-3(2H)-pyridazinone], the melting point falls from 300 °C to 176 °C.

Going from `Cc1ccccc1-c1nc(N)ncc1-c1ccc(=O)[nH]n1` [Example 39, 6-[2-Amino-4-(2-methylphenyl)-5-pyrimidinyl]-3(2H)-pyridazinone] to `COc1ccccc1-c1nc(N)ncc1-c1ccc(=O)[nH]n1` [Example 40, 6-[2-Amino-4-(2-methoxyphenyl)-5-pyrimidinyl]-3(2H)-pyridazinone], the melting point falls from 313 °C to 273 °C.

Compared with `COc1ccc(-c2nc(N)ncc2-c2ccc(=O)n(C(C)C)n2)cc1` [Example 44, 6-[2-amino-4-(4-methoxyphenyl)-5-pyrimidinyl]-2-isopropyl-3(2H)-pyridazinone], `Cc1ccc(-c2nc(N)ncc2-c2ccc(=O)n(C(C)C)n2)cc1` [Example 48, 6-[2-Amino-4-(4-methylphenyl)-5-pyrimidinyl]-2-isopropyl-3(2H)-pyridazinone] is higher in melting point: 216.5 °C for the first, 224 °C for the second.

Compared with `COc1ccc(-c2nc(N)ncc2-c2ccc(=O)n(C(C)C)n2)cc1F` [Example 46, 6-[2-Amino-4-(3-fluoro-4-methoxyphenyl)-5-pyrimidinyl]-2-isopropyl-3(2H)-pyridazinone], `COc1ccc(-c2nc(N)ncc2-c2ccc(=O)n(C(C)C)n2)cc1OC` [Example 51, 6-[2-Amino-4-(3,4-dimethoxyphenyl)-5-pyrimidinyl]-2-isopropyl-3(2H)-pyridazinone] is lower in melting point: 174 °C for the first, 167 °C for the second.

In the case of `CC(C)n1nc(-c2cnc(N)nc2-c2ccc(F)c(F)c2)ccc1=O` [Example 49, 6-[2-Amino-4-(3,4-difluorophenyl)-5-pyrimidinyl]-2-isopropyl-3(2H)-pyridazinone], the melting point is reported as 208 °C.

`CNc1ncc(-c2ccc(=O)[nH]n2)c(-c2ccccc2)n1` [Example 8, 6-[2-(Methylamino)-4-phenyl-5-pyrimidinyl]-3(2H)-pyridazinone] showed a melting point of over 255 °C.
